In patent US7432375B2, “JNK inhibitors” (Eisai R & D Management Co., Ltd., priority 2003, dated 2008) one finds IC50 data, which are given here for six compounds.

Format in all cases: biochemical
For assay [1], the target named is JNK3 (Homo sapiens, UniProt P53779). Briefly: JNK3 SPA assay. The note with it: phosphorylation of GST-c-Jun, 3.33 μM ATP. How it is done: (§1) JNK1, JNK2, JNK3—SPA Assay
(§2) • 1. Compound is dissolved in DMSO to a convenient concentration and this is diluted in 10% DMSO to a five times concentrate of the desired starting concentration (frequently 1:100). • 2. 10 μl of 500 mM EDTA is added to alternative wells of the Opti-plate row, which will receive kinase reaction plus DMSO. This creates the negative control. • 3. For the JNK2 and JNK3 assay, compounds are prepared in six 2-fold dilutions with water and each concentration is tested in duplicate. For the JNK1 assay compounds are prepared in four 5-fold dilutions with water which are tested in triplicate. Controls are treated identically. • 4. 20 μl per well of each compound concentration is transferred to an Opti-plate, in duplicate. • 5. 30 μl (JNK2/3 SPA) or 50 μl (JNK1 SPA) of substrate solution (25 mM HEPES pH 7.5, 10 mM magnesium acetate with 3.33 μM ATP (JNK2/3) or 2 μM ATP (JNK1), approximately 7.5 kBq [γ-^33P] ATp, GST-c-Jun, in water) is added to each well. • 6. 50 μl (JNK2/3 SPA) or 30 μl (JNK1 SPA) of kinase solution (JNK in 25 mM HEPES pH 7.5, 10 mM Mg Acetate) is added to each well.
(§3) • 7. The plate is incubated for 30 minutes at room temperature. • 8. 100 μl of bead/stop solution is added to each well (5 mg/ml glutathione-PVT-SPA beads, 40 mM ATP in PBS). • 9. Plates are sealed and incubated for 30 minutes at room temperature, centrifuged for 10 minutes at 2500 g and counted. • 10. The IC50 values are calculated as the concentration of the compound being tested at which the phosphorylation of c-Jun is decreased to 50% of the control value.

Assay [2] concerns the target JNK1 (Homo sapiens, UniProt P45983). Briefly: JNK1 SPA assay. The note with it: phosphorylation of GST-c-Jun, 2 μM ATP. As to the method:
as §1, §2, §3

The target of assay [3] is T1, p38 MAP kinase (Homo sapiens, UniProt Q16539).
T1 construct: purchased Upstate
Briefly: p38 ELISA. Particulars: phosphorylation of GST-ATF2, 50 μM ATP. How it is done: Active p38 kinase (100 ng; Upstate) was added to 2 μg GST-ATF2 substrate (NEB) in 250 mM Hepes pH 7.5/100 mM MgAc/50 μM ATP (final) in the presence or absence of compounds in 50 μl. The mixture was incubated at 30° C. for 1 hour, and then diluted with 200 μl PBS-Tween (0.05%). From this, duplicate volumes of 100 μl were added to a Reacti-Bind glutathione coated plate (Pierce) and incubated for 1 hour. After washing 3 times with PBS-Tween (0.05%), rabbit anti-phospho-ATF2 (Thr71) antibody (NEB) was added at 1:500, and incubated for another hour at room temperature. After 3 additional washes with PBS-Tween (0.05%), […] anti-rabbit IgG alkaline phosphatase-conjugated secondary antibody (Sigma) was added at 1:1000, the reaction was incubated for a further hour, washed 3 times, and then phosphatase substrate (Sigma) was added (100 μl per well; 3 tablets in 5 ml water). After incubation in the dark at 37° C. for 1 hour, the reaction mixture was transferred to a clear 96 well plate, and the absorbance at 405 nm was read.
The IC50 values are calculated as the concentration of the compound being tested at which the phosphorylation of ATF2 is decreased to 50% of the control value.
(In general: An ELISA detects its analyte on a solid surface through an enzyme-linked reagent.)

The target of assay [4] is JNK2 (Homo sapiens, UniProt P45984). In words: JNK2 SPA assay. Particulars: phosphorylation of GST-c-Jun, 3.33 μM ATP. As to the method:
as §1, §2, §3

JNK1, sequence (P45983 whole entry): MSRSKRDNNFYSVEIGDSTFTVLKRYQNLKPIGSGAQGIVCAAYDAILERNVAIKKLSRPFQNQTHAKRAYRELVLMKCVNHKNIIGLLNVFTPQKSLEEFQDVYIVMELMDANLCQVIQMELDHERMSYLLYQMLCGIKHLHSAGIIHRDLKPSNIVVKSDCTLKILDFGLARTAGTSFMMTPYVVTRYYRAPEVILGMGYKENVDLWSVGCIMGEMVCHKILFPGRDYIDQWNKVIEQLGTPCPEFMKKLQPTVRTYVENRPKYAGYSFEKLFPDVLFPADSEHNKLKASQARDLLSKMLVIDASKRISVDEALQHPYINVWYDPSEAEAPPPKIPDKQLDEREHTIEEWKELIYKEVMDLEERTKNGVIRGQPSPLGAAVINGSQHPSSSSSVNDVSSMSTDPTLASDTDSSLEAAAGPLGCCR
T1 sequence (Q16539 whole entry): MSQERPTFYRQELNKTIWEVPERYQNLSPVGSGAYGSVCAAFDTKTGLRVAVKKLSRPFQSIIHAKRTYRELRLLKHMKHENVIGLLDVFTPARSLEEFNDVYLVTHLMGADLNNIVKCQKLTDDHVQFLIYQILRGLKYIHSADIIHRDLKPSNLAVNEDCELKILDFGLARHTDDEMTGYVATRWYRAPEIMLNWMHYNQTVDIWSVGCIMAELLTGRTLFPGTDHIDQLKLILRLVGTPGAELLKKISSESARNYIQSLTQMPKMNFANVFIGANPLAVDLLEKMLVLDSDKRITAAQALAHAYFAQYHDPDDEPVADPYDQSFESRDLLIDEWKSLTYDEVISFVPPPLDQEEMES
JNK3, sequence (P53779 whole entry): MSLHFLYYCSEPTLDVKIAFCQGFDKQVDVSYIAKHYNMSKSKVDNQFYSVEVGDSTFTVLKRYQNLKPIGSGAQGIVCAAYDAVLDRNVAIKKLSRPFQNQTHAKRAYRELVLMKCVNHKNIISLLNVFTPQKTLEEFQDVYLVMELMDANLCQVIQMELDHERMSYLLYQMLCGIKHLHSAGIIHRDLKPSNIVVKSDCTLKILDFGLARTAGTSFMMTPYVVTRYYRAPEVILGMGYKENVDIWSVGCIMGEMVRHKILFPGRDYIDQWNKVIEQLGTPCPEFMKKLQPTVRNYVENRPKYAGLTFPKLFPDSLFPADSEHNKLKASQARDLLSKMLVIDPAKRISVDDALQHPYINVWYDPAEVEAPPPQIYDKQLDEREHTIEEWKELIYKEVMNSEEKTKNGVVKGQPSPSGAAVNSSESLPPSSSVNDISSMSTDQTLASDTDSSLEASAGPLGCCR
JNK2, sequence (P45984 whole entry): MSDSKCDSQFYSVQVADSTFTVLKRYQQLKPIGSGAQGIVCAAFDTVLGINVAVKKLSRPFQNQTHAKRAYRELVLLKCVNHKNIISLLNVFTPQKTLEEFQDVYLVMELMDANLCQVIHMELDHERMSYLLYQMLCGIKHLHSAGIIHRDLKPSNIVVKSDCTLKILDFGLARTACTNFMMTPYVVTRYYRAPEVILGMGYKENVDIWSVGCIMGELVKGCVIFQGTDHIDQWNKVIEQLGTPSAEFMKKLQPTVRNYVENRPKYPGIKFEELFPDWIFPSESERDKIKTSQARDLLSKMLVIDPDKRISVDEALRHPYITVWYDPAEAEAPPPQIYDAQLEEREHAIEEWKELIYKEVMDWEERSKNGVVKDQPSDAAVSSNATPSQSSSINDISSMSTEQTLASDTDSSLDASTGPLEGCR

What is called IC50 is the midpoint of a concentration-inhibition curve. In the case of `CN(C)c1ccc(-c2cnc3[nH]cc(-c4ccoc4)c3c2)cc1`, the IC50 is below 500 nM in assay [1], below 500 nM in assay [2], above 10000 nM in assay [3] and below 500 nM in assay [4].

For `c1csc(-c2cnc3[nH]cc(-c4ccoc4)c3c2)c1`, the IC50 is below 500 nM in assay [1], below 500 nM in assay [2], above 10000 nM in assay [3] and below 500 nM in assay [4].

`CN(C)c1ccc(-c2cnc3[nH]cc(-c4cc[nH]c4)c3c2)cc1` had an IC50 in assay [1] below 500 nM.

For `c1csc(-c2cnc3[nH]cc(-c4cncs4)c3c2)c1`, the IC50 is below 500 nM in assay [1], below 500 nM in assay [2], above 10000 nM in assay [3] and below 500 nM in assay [4].

For `Fc1cccc(-c2c[nH]c3ncc(-c4ccccc4Oc4ccccc4)cc23)c1`, the IC50 in assay [1] is below 500 nM.

The compound `c1ccc(Oc2ccccc2-c2cnc3[nH]cc(-c4ccccc4)c3c2)cc1` registered an IC50 in assay [1] below 500 nM.
